For series [1], the system named is respiratory syncytial virus (RSV/Long). The experiment in a line: Example 1: antibody/triamcinolone therapy of RSV-infected cotton rats (virus titer, pulmonary pathology). Type of series: in vivo. Particulars: treatment i.m. beginning 3 days post-infection; antibody 15 mg/kg, triamcinolone 1-16 mg/kg; lungs days 4 and 6. As for the experimental part:
The following procedure was performed using inbred cotton rats (Sigmodon hispidus). On day 0, young adult cotton rats were divided into 9 groups of 12 animals each (total: 108 animals). Identification of each group in terms of treatment was as follows:
In each case (Groups B–I), approximately 10^6.5 plaque forming units (pfu) of respiratory syncytial virus (RSV/Long) was administered intranasally in a volume of 100 μl.
On day 3, treatment began as described above for each of the groups. The animals were each weighed and treated according to the indicated regimen. All antibody and steroid administration was intramuscular (i.e., systemic) and both antibody and steroid were administered together. Antibody was palivizumab wherein 15 mg/kg was the dose used in each case. All dosages are given as mg per kg of body weight.
On day 4, six animals from each group were sacrificed, their lungs bisected, with half being homogenized for viral quantitation and the other half being inflated with formalin for histological examination. The remaining six animals in each of groups D through I were treated with the dose of triamcinolone indicated above but no additional antibody was given.
On day 5, the remaining six animals in each group were treated again as described for day 4 (again with no additional antibody).
On day 6, the remaining 6 animals from each group were sacrificed and data collected as described for day 4. Thus, their lungs were bisected, with half being homogenized for viral quantitation and the other half being inflated with formalin for histological examination.
Results of these experiments are shown graphically in FIGS. 2(a through e).
This experiment was duplicated on a separate population of 108 cotton rats divided into groups and treated as just described with similar results reported in FIG. 3 (FIG. 3(a) showing virus titer and FIG. 3(b) showing composite pathology score). The conclusions herein are the result of data from both experiments. The results for composite pathology scores are shown in FIG. 1 reflecting the results of both sets of experiments.

The test system of series [2] is RSV. The experiment in a line: Example 5: lung pathology score (0 to 100) on day 6 after MAb and glucocorticoid therapy. It is filed as in vivo, cotton rats. As to the method:
Twenty eight (28) cotton rats (CRs) were infected intranasally with 6.5 logs of RSV (as 0.1 ml of inoculum), leading to dramatic lung pathology 6 days post-infection (PI). On day 3 PI (the peak for viral infection), 7 groups of 4 animals received one of the following: no therapy, or intramuscular (i.m.) MAb (15 mg/kg) (MAb=palivizumab) i.m. triamcinolone (TRI;Steris Laboratories, Phoenix, Ariz.) at 16 mg/kg and MAb; i.p. methylprednisolone (MED; Solu-Medrol® Pharmacia and Upjohn, Kalamazoo, Mich.) 4 mg/kg and MAb; i.p. MED at 8 mg/kg and MAb; i.p. dexamethasone (DEX; Elkins-Sinn, Cherry Hill, N.J.) 0.6 mg/kg and MAb; or i.p. DEX 1.2 mg/kg and MAb (TRI and DEX once daily, MED divided into every 6 hours). All glucocorticoids were repeated on days 4 and 5. The dose, frequency and route of administration of dexamethasone and methylprednisolone were extrapolated from human use recommendations.
On day 6, all groups (including 4 uninfected CRs were sacrificed (in general by carbon dioxide asphyxiation). For pathology, tissues were inflated and formalin fixed and coronal paraffin sections were cut at 4 μm thickness. Lung tissue slides scored on a 0 (normal) to 100 (marked pathology) severity scale, for bronchiolitis, alveolitis, and interstitial pneumonia.
Results are shown graphically in FIG. 7A and summarized as follows in terms of pathology score (0 to 100).

In series [3] the test system is Respiratory Syncytial Virus. Particulars: systemically administered; 147 infants; cited from earlier work.
Series [4] relates to respiratory syncytial virus (RSV/Long). The experiment in a line: Example 3: different steroids with the same antibody in RSV pneumonia, arithmetic mean pathology scores. Particulars: 8 mg/kg/day i.p. days 3-5 plus antibody 15 mg/kg day 3; day 6. It is filed as in vivo. As to the method: The following procedure was performed using inbred cotton rats (Sigmodon hispidus). On day 0, young adult cotton rats were divided into 8 groups of 4 animals each (total: 32 animals). Identification of each group in terms of treatment was as follows:
In each case (Groups B–H), approximately 10^6.5 plaque forming units (pfu) of respiratory syncytial virus (RSV/Long) was administered intranasally in a volume of 100 μl.
On day 3, treatment began as described above for each of the groups. The animals were each weighed and treated according to the indicated regimen. Antibody was palivizumab wherein 15 mg/kg was the dose used in each case. All dosages are given as mg per kg of body weight.
On day 4, animals in groups D through H were treated as described for day 3 but no additional antibody was given.
On day 5, animals in groups D through H were treated as on […] (again with no additional antibody).
On day 6, all animals were sacrificed. Lungs from all of the animals were inflated with formalin for histological examination.

The conditions of series [5]: cited from earlier work.
Series [6] concerns RSV. As to conditions: aerosol inhalation; versus untreated patients; cited from earlier work.
Setting [7] is: MAb 15 mg/kg i.m. day 3, TRI 16 mg/kg i.m. days 3-5.

Consider “palivizumab: anti-RSV IgG monoclonal antibody, commercially palivizumab, sequence described as Medi-493 (U.S. Pat. No. 5,824,307 FIGS. 7 and 8)”, for which, in series [1], the pulmonary pathology result is “no significant effect on pulmonary pathology” and the “viral clearance (RSV titer in lungs)” value was “accelerated viral clearance”. The “pathology (summary of Table 1)” value with RSV [2] was “did not reduce pathology”. Also, in the series on RSV [2] (setting [7]), the “Alveolitis pathology score (0 to 100)” value was 38, the “Bronchiolitis pathology score (0 to 100)” value came out at 75 and the “Interstitial Pneumonia pathology score (0 to 100)” value is on record as 49. The “lung tissue histology (inflammatory infiltrates)” value in the series on RSV [2] (palivizumab day 3, methylprednisolone days 3, 4 and 5, hematoxylin and eosin, 64X) is listed as “Little or no improvement”.

`C[C@]12C=CC(=O)C=C1CC[C@@H]1[C@@H]2[C@@H](O)C[C@@]2(C)[C@H]1CC[C@]2(O)C(=O)CO` [prednisolone]: the “effectiveness in infant RSV” value in series [3] was “ineffectiveness”.

`C[C@]12C=CC(=O)C=C1CC[C@H]1[C@@H]3C[C@@H](O)[C@](O)(C(=O)CO)[C@@]3(C)C[C@H](O)[C@@]12F` [triamcinolone]: in series [1], the pulmonary pathology result is recorded as “positive effect on pulmonary pathology” and the “viral clearance (RSV titer in lungs)” value is reported as “retarded viral clearance”.

Consider `C[C@H]1C[C@@H]2[C@H]([C@@H](O)C[C@@]3(C)[C@H]2CC[C@]3(O)C(=O)COC(=O)CCC(=O)[O-])[C@@]2(C)C=CC(=O)C=C12.[Na+]` [solumedrol], for which, in series [4], the “pulmonary pathology (arithmetic mean pathology scores) compared with triamcinolone” value was “worked almost as well as triamcinolone”.

As for `NC(=O)c1ncn([C@@H]2O[C@H](CO)[C@@H](O)[C@H]2O)n1` [ribavirin], in series [5] (given orally), the bioavailability result is recorded as “about 45%”. In addition, the “time of peak concentrations in plasma” value in series [5] (in vivo, po) is 1 to 2 h. In addition, the “level of secondary infection following cessation of treatment” value with RSV [6] is “significantly higher than in untreated patients”.

Values taken from patent US7208162B2, “Combination therapy of respiratory diseases using antibodies and anti-inflammatory agents” (priority 2000, dated 2007).
